Experimental findings from US20080234333A1, “Novel Hydroxamic Acid Derivative as Peptide Deformylase Inhibitor and Manufacturing Method Thereof” (priority 2005, published 2008) are described below.

Series [1] relates to Streptococcus pyogenes. As to the kind of experiment: MIC, microdilution method in 96-well plates. The conditions noted are these: read-out: MIC Streptococcus pyogenes. Type of series: cell-based. The protocol:
(§1) Minimum inhibitory concentrations (MICs) were determined using the microdilution method in 96-well format plates. Each of the compounds of Examples was dissolved in dimethyl sulfoxide to a concentration of 2 mg/mL and stored at 4° C. until used. They were diluted in Mueller-Hinton Broth (MHB) and used for MIC determination. The range of concentrations tested was […] final concentration using a two-fold dilution system. Plates were incubated at 37° C. and MIC were recorded after 24 hours of incubation for bacteria.
(§2) Linezolid and vancomycin were used as standard antibiotics, respectively.
For orientation: Dilution methods test growth across graded concentrations, often in twofold steps.

The subject of series [2] is Methicillin-resistant Staphylococcus aureus. Nature of the series: MIC, microdilution method in 96-well plates. Type of series: cell-based. The conditions noted are these: read-out: MIC Methicillin-resistant Staphylococcus aureus. The protocol: as §1, §2
For series [3], the system named is Streptococcus agalactiae. As to the kind of experiment: MIC, microdilution method in 96-well plates. The format is cell-based. The conditions noted are these: read-out: MIC Streptococcus agalactiae. How it is done: as §1, §2
Series [4] relates to Vancomycin-resistant Enterococcus faecalis. As to the kind of experiment: MIC, microdilution method in 96-well plates. Type of series: cell-based. The conditions noted are these: read-out: MIC Vancomycin-resistant Enterococcus faecalis. How it is done: as §1, §2
For series [5], the system named is Streptococcus pneumoniae. Nature of the series: MIC, microdilution method in 96-well plates. Type of series: cell-based. The conditions noted are these: read-out: MIC Streptococcus pneumoniae. How it is done: as §1, §2
Series [6] in a line: Acute toxicity study in mice. The conditions noted are these: male, mouse, in vivo, 4000 mg/kg; ICR mice (♂, 4 weeks), oral 4,000 mg/kg dose, observed for 14 days. How it is done:
The acute toxicity of the compounds of Example 7, 13, 18 and 47 were tested using several groups of ICR mice each of 6 mice.

The mark [7] stands for this setting: Mueller-Hinton Broth, 37° C., 24 hours of incubation.

Converted amounts (≈) assume the structure as drawn. Read-outs that look alike come from different tables or passages of the source.

By MIC is commonly meant the smallest concentration in the dilution series that meets the test's criterion for growth inhibition. For `CC(=O)NC[C@H]1CN(c2ccc(N3CCOCC3)c(F)c2)C(=O)O1` [Linezolid, reference compound], the MIC in series [1] (setting [7]) turned out to be 0.8 mg/L (≈ 2.37 µM); in series [2] (setting [7]), 1.6 mg/L (≈ 4.74 µM); in series [3] (setting [7]) it was 1.6 mg/L (≈ 4.74 µM); in series [4] (setting [7]), 0.8 mg/L (≈ 2.37 µM); in series [5] (setting [7]), 0.8 mg/L (≈ 2.37 µM).
In the case of `CC(C)(C)[C@H](NC(=O)[C@@H](CC(=O)NO)CC1CCCC1)C(=O)N1CCC(NC(=O)c2ccc(F)cc2)CC1` [Example 15, (R)-2-Cyclopentylmethyl-N^1-{(S)-1-[4-(4-fluoro-benzoylamino)-piperidine-1-carbonyl]-2,2-dimethyl-propyl}-N^4-hydroxy-succinamide], the MIC was determined as 0.2 mg/L (≈ 0.375 µM) in series [1] (setting [7]); 6.3 mg/L (≈ 11.8 µM) in series [2] (setting [7]); 0.2 mg/L (≈ 0.375 µM) in series [3] (setting [7]); 6.3 mg/L (≈ 11.8 µM) in series [4] (setting [7]); 6.3 mg/L (≈ 11.8 µM) in series [5] (setting [7]).
On to `Cc1ccc(C(=O)NC2CCN(C(=O)[C@@H](NC(=O)[C@@H](CC(=O)NO)CC3CCCC3)C(C)(C)C)CC2)cc1` [Example 20, (R)-2-Cyclopentylmethyl-N^1-{(S)-2,2-dimethyl-1-[4-(4-methyl-benzoylamino)-piperidine-1-carbonyl]-propyl}-N^4-hydroxy-succinamide], for which the minimum inhibitory concentration (MIC) came out at 0.4 mg/L (≈ 0.757 µM) in series [1] (setting [7]); 25 mg/L (≈ 47.3 µM) in series [2] (setting [7]); 0.4 mg/L (≈ 0.757 µM) in series [3] (setting [7]); 12.5 mg/L (≈ 23.6 µM) in series [4] (setting [7]); 0.8 mg/L (≈ 1.51 µM) in series [5] (setting [7]).
For `CC(C)(C)[C@H](NC(=O)[C@H](CC1CCCC1)CN(O)C=O)C(=O)N1CCC(NC(=O)c2ccccc2)CC1` [Example 25, N-(1-{(S)-2-[(R)-2-Cyclopentylmethyl-3-(formyl-hydroxy-amino)-propionylamino]-3,3dimethyl-butyryl}-piperidin-4-yl)-benzamide], the MIC stood at 0.4 mg/L (≈ 0.777 µM) in series [1] (setting [7]); 12.5 mg/L (≈ 24.3 µM) in series [2] (setting [7]); 0.1 mg/L (≈ 0.194 µM) in series [3] (setting [7]); 6.3 mg/L (≈ 12.2 µM) in series [4] (setting [7]); 6.3 mg/L (≈ 12.2 µM) in series [5] (setting [7]).
Take `Cc1ccc(C(=O)NC2CCN(C(=O)[C@@H](NC(=O)[C@H](CC3CCCC3)CN(O)C=O)C(C)(C)C)CC2)cc1` [Example 38, N-(1-[(S)-2-[(R)-2-Cyclopentylmethyl-3-(formyl-hydroxy-amino)-propionylamino]-3,3-dimethyl-butyryl}-piperidin-4-yl)-4-methyl-benzamide]: the MIC in series [1] (setting [7]) came out at 3.1 mg/L (≈ 5.86 µM); in series [2] (setting [7]) it was 6.3 mg/L (≈ 11.9 µM); in series [3] (setting [7]), 0.1 mg/L (≈ 0.189 µM); in series [4] (setting [7]) it was 3.1 mg/L (≈ 5.86 µM); in series [5] (setting [7]), 1.6 mg/L (≈ 3.03 µM).
Regarding `CC(C)(C)[C@H](NC(=O)[C@H](CC1CCCC1)CN(O)C=O)C(=O)N1CCC(NC(=O)c2ccc(C(F)(F)F)cc2)CC1` [Example 28, N-(1-{(S)-2-[(R)-2-Cyclopentylmethyl-3-(formyl-hydroxy-amino)-propionylamino]-3,3-dimethyl-4-butyryl}-piperidin-4-yl)-4-trifluoromethyl-benzamide], the MIC was 3.1 mg/L (≈ 5.32 µM) in series [1] (setting [7]); 3.1 mg/L (≈ 5.32 µM) in series [2] (setting [7]); 0.1 mg/L (≈ 0.172 µM) in series [3] (setting [7]); 6.3 mg/L (≈ 10.8 µM) in series [4] (setting [7]); 1.6 mg/L (≈ 2.75 µM) in series [5] (setting [7]).
As to `CC(C)(C)[C@H](NC(=O)[C@@H](CC(=O)NO)CC1CCCC1)C(=O)N1CCC(NC(=O)Cc2ccccc2)CC1` [Example 10, (R)-2-Cyclopentylmethyl-N^1-[(S)-2,2-dimethyl-1-(4-phenylacetylamino-piperidine-1-carbonyl)-propyl]-N^4-hydroxy-succinamide], the MIC turned out to be 0.8 mg/L (≈ 1.51 µM) in series [1] (setting [7]); 50 mg/L (≈ 94.6 µM) in series [2] (setting [7]); 0.2 mg/L (≈ 0.378 µM) in series [3] (setting [7]); 50 mg/L (≈ 94.6 µM) in series [4] (setting [7]); 50 mg/L (≈ 94.6 µM) in series [5] (setting [7]).
One may read the LD50 as the dose at which mortality reaches 50%. Low values mean a more toxic substance, high ones a less toxic substance. The compound `CC(C)C[C@H](CC(=O)NO)C(=O)N[C@H](C(=O)N1CCC(NC(=O)Cc2ccccc2)CC1)C(C)(C)C` [Example 7, (R)-N^1-[(S)-2,2-Dimethyl-1-(4-phenylacetylamino-piperidine-1-carbonyl)-propyl]-N^4-hydroxy-2-isobutyl-succinamide] gave an LD50 at 14 days in series [6] of more than 4000 mg/kg.
On to `CC(C)(C)[C@H](NC(=O)[C@@H](CC(=O)NO)CC1CCCC1)C(=O)N1CCC(NC(=O)c2ccccc2)CC1` [Example 8, (R)-N^1-[(S)-1-(4-Benzoylamino-piperidine-1-carbonyl)-2,2-dimethyl-propyl]-2-cyclopentylmethyl-N^4-hydroxy-succinamide], for which the MIC came to 1.6 mg/L (≈ 3.11 µM) in series [1] (setting [7]); 12.5 mg/L (≈ 24.3 µM) in series [2] (setting [7]); 1.6 mg/L (≈ 3.11 µM) in series [3] (setting [7]); 25 mg/L (≈ 48.6 µM) in series [4] (setting [7]); 6.3 mg/L (≈ 12.2 µM) in series [5] (setting [7]).
As to `CN[C@H](CC(C)C)C(=O)N[C@H]1C(=O)N[C@@H](CC(N)=O)C(=O)N[C@H]2C(=O)N[C@H]3C(=O)N[C@H](C(=O)N[C@H](C(=O)O)c4cc(O)cc(O)c4-c4cc3ccc4O)[C@H](O)c3ccc(c(Cl)c3)Oc3cc2cc(c3O[C@@H]2O[C@H](CO)[C@@H](O)[C@H](O)[C@H]2O[C@H]2C[C@](C)(N)[C@H](O)[C@H](C)O2)Oc2ccc(cc2Cl)[C@H]1O` [Vancomycin, reference compound], the MIC in series [1] (24 h) was 0.8 mg/L (≈ 0.552 µM); in series [2] (24 h), 3.1 mg/L (≈ 2.14 µM); in series [3] (24 h), 1.6 mg/L (≈ 1.1 µM); in series [4] (24 h), more than 100 mg/L; in series [5] (24 h), 0.8 mg/L (≈ 0.552 µM).
Consider `CC(C)(C)[C@H](NC(=O)[C@H](CC1CCCC1)CN(O)C=O)C(=O)N1CCC(NC(=O)c2cc(F)c(F)cc2F)CC1` [Example 44, N-(1-{(S)-2-[(R)-2-Cyclopentylmethyl-3-(formyl-hydroxy-amino)-propionylamino]-3,3-dimethyl-butyryl}-piperidin-4-yl)-2,4,5-trifluoro-benzamide], for which the MIC in series [1] (setting [7]) was determined as 0.2 mg/L (≈ 0.352 µM); in series [2] (setting [7]) it was 3.1 mg/L (≈ 5.45 µM); in series [3] (setting [7]), 0.2 mg/L (≈ 0.352 µM); in series [4] (setting [7]), 3.1 mg/L (≈ 5.45 µM); in series [5] (setting [7]) it was 1.6 mg/L (≈ 2.81 µM).
As to `CC(C)(C)[C@H](NC(=O)[C@H](CC1CCCC1)CN(O)C=O)C(=O)N1CCC(NC(=O)Nc2ccc(C(F)(F)F)cc2)CC1` [Example 48, (R)-2-Cyclopentylmethyl-N-((S)-2,2-dimethyl-1-{4-[3-(4-trifluoromethyl-phenyl)-ureido)-piperidine-1-carbonyl}-propyl)-3-(formyl-hydroxy-amino)-propionamide], the MIC in series [1] (setting [7]) was 0.2 mg/L (≈ 0.335 µM); in series [2] (setting [7]), 6.3 mg/L (≈ 10.5 µM); in series [3] (setting [7]), 0.2 mg/L (≈ 0.335 µM); in series [4] (setting [7]), 3.1 mg/L (≈ 5.19 µM); in series [5] (setting [7]), 1.6 mg/L (≈ 2.68 µM).
With `CC(C)[C@H](NC(=O)[C@H](CC1CCCC1)CN(O)C=O)C(=O)N1CCC(NC(=O)c2ccc(C#N)cc2)CC1` [Example 41, 4-Cyano-N-(1-{(S)-2-[(R)-2-cyclopentylmethyl-3-(formyl-hydroxy-amino)-propionylamino]-3-methyl-butyryl}-piperidin-4-yl)benzamide], the MIC in series [1] (setting [7]) is 0.4 mg/L (≈ 0.761 µM); in series [2] (setting [7]), 6.3 mg/L (≈ 12 µM); in series [3] (setting [7]), 0.4 mg/L (≈ 0.761 µM); in series [4] (setting [7]) it was 3.1 mg/L (≈ 5.9 µM); in series [5] (setting [7]), 1.6 mg/L (≈ 3.04 µM).
For `CC(C)(C)[C@H](NC(=O)[C@H](CC1CCCC1)CN(O)C=O)C(=O)N1CCC(NC(=O)c2ccc(F)cc2)CC1` [Example 30, N-(1-{(S)-2-[(R)-2-Cyclopentylmethyl-3-(formyl-hydroxy-amino)-propionylamino]-3,3-dimethyl-butyryl}-piperidin-4-yl)-4-fluoro-benzamide], the minimal inhibitory concentration (MIC) stood at 0.2 mg/L (≈ 0.375 µM) in series [1] (setting [7]); 6.3 mg/L (≈ 11.8 µM) in series [2] (setting [7]); 0.2 mg/L (≈ 0.375 µM) in series [3] (setting [7]); 6.3 mg/L (≈ 11.8 µM) in series [4] (setting [7]); 1.6 mg/L (≈ 3 µM) in series [5] (setting [7]).
Consider `CC(C)(C)[C@H](NC(=O)[C@H](CC1CCCC1)CN(O)C=O)C(=O)N1CCC(NC(=O)c2ccc(C#N)cc2)CC1` [Example 29, 4-Cyano-N-(1-{(S)-2-[(R)-2-cyclopentylmethyl-3-(formyl-hydroxy-amino)-propionylamino]-3,3-dimethyl-butyryl}-piperidin-4-yl)benzamide], for which the MIC in series [1] (setting [7]) amounted to 0.1 mg/L (≈ 0.185 µM); in series [2] (setting [7]), 3.1 mg/L (≈ 5.74 µM); in series [3] (setting [7]), 0.1 mg/L (≈ 0.185 µM); in series [4] (setting [7]), 3.1 mg/L (≈ 5.74 µM); in series [5] (setting [7]), 1.6 mg/L (≈ 2.96 µM).
Turning to `CC(C)(C)[C@H](NC(=O)[C@H](CC1CCCC1)CN(O)C=O)C(=O)N1CCC(NS(=O)(=O)c2ccc(C(F)(F)F)cc2)CC1` [Example 50, (R)-2-Cyclopentylmethyl-N-{(S)-2,2-dimethyl-1-[4-(4-trifluoromethyl-benzenesulfonylamino)-piperidine-1-carbonyl]-propyl}-3-(formyl-hydroxy-amino)-propionamide], the MIC in series [1] (setting [7]) was 0.4 mg/L (≈ 0.646 µM); in series [2] (setting [7]), 6.3 mg/L (≈ 10.2 µM); in series [3] (setting [7]) it was 0.4 mg/L (≈ 0.646 µM); in series [4] (setting [7]), 3.1 mg/L (≈ 5.01 µM); in series [5] (setting [7]) it was 1.6 mg/L (≈ 2.59 µM).
As to `COc1ccc(C(=O)NC2CCN(C(=O)[C@@H](NC(=O)[C@H](CC3CCCC3)CN(O)C=O)C(C)(C)C)CC2)cc1` [Example 39, N-(1-{(S)-2-[(R)-2-Cyclopentylmethyl-3-(formyl-hydroxy-amino)-propionylamino]-3,3-dimethyl-butyryl}-piperidin-4-yl)-4-methoxy-benzamide], the MIC was determined as 0.2 mg/L (≈ 0.367 µM) in series [1] (setting [7]); 12.5 mg/L (≈ 22.9 µM) in series [2] (setting [7]); 0.2 mg/L (≈ 0.367 µM) in series [3] (setting [7]); 6.3 mg/L (≈ 11.6 µM) in series [4] (setting [7]); 3.1 mg/L (≈ 5.69 µM) in series [5] (setting [7]).
